The text below walks through data of PubChem BioAssay AID1419 (Emory University Molecular Libraries Screening Center, 2008).

This assay is described as follows: EBV protein-peptide binding inhibitors, dose response, biochemical, fluorescence polarization (AID 1419). The settings on record: cell-free protein-peptide binding, 2 h; for fold change: measured here: P channel fold over control, at 54 µM.

The structures appear in SMILES notation. The source made the active and inactive calls. No rule for the calls is given here. Where only a bound is given, the exact number is not on record here.

In the case of `CC(=O)N/N=C/c1cc(C(C)C)cc(/C=N/NC(C)=O)c1O`, the half-inhibitory concentration (IC50) is 2.84 µM and the fold change is 4.18.

For `C1=C(c2ccc(-c3ccccc3)cc2)Nc2ncnn2C1c1ccco1` (centres undefined), the IC50 is below 0.42 µM and the fold change turned out to be 15.5.

Turning to `CCN(CC)S(=O)(=O)c1ccc(C(=O)OCCN2C(=O)c3cccc4c(N5CCOCC5)ccc(c34)C2=O)cc1`, the IC50 is 1.53 µM and the fold change is 111.

`COc1cc2c(cc1OC)-c1cc3ccc4c(c3c[n+]1CC2)OCO4`: the half-inhibitory concentration (IC50) was below 0.42 µM and the fold change worked out at 11.6.

For the compound `Cc1cc(/C=C2\SC(=S)N(Cc3ccco3)C2=O)c(C)n1-c1ccccc1`, the IC50 is 7.24 µM and the fold change worked out at 4.81.

Regarding `Cc1nn(-c2ccccc2)c(N2CCCC2)c1/C=C1\N=C(c2ccccc2)OC1=O`, the half-inhibitory concentration (IC50) was 25.5 µM and the fold change was 3.5.

Regarding `O=C(Nc1ccc2nc3ccccc3nc2c1)c1ccccc1`, the IC50 was 15.5 µM and the fold change was determined as 1.85.

With `COc1ccc2nc(-n3c(O)c(C4=c5ccccc5=NC4=O)[nH]c3=S)sc2c1`, the IC50 was 3.48 µM and the fold change is 0.923.

With `COc1cc(/C=N/c2oc(-c3ccccc3)cc2C#N)ccc1O`, the IC50 was 15.5 µM and the fold change turned out to be 10.2.

For `CCOc1ccc(Cn2c3ccc(OC)cc3c3nc4ccccc4nc32)cc1`, the IC50 is 1.15 µM and the fold change was determined as 6.17.

For `CC(=O)Nc1ccc(N2CCc3c(C)c(C#N)c4nc5ccccc5n4c32)cc1`, the IC50 was > 54 µM (inactive) and the fold change was 3.39.

For `COC(=O)C1=COC(C)C2CN3CCc4c([nH]c5cc(OC)c(OC)cc45)C3CC12` (centres undefined), the IC50 was 8.76 µM and the fold change was found to be 2.6.

`COC(=O)c1cc2c(C)c(C)c3ccccn3c-2c1C(=O)OC`: the IC50 is 3.61 µM and the fold change worked out at 2.38.

With `Cc1nn(C)c(C)c1CN(C)C(=O)C1c2ccccc2Oc2ccccc21`, the IC50 is 3.77 µM and the fold change is 4.27.

Turning to `CCN(CC)c1nc2ccccc2nc1C(C#N)C(=O)NCCc1ccccc1` (centres undefined), the IC50 is 1.37 µM and the fold change turned out to be 22.

On to `COC(=O)c1ccc2c(c1)SC1=C(CCCC1=O)N2`, for which the IC50 is 1.44 µM and the fold change was determined as 3.08.

Regarding `Cc1ccc(N=C2NC(=O)/C(=C/c3cn(C)c4ccccc34)S2)cc1C`, the IC50 is 4.47 µM and the fold change stood at 7.74.

As for `O=C1CCC(=O)N1c1nc2n(n1)C(c1ccccc1)C=C(c1ccc(Br)cc1)N2` (centres undefined), the IC50 was > 54 µM (inactive) and the fold change worked out at 1.53.

With `Cc1nnc(NC(=O)CSc2cn(CCNC(=O)c3ccccc3)c3ccccc23)s1`, the IC50 was > 54 µM (inactive) and the fold change was determined as 1.05.

On to `CCNc1ccc2noc3c2c1C(=O)c1ccccc1-3`, for which the IC50 was below 0.42 µM and the fold change was 235.

On to `COc1cc2c(cc1NC(=O)CN1C(=O)NC3(CCc4ccccc43)C1=O)oc1ccccc12` (centres undefined), for which the IC50 is > 54 µM (inactive) and the fold change worked out at 0.93.

`Cn1c(/N=C/c2c(O)ccc3ccccc23)nc2ccccc21`: the IC50 was 3.17 µM and the fold change is 41.9.

For `O=C(CSc1nc(-c2ccccc2)nc2c1Cc1ccccc1O2)Nc1ccc(C(=O)O)cc1`, the half-inhibitory concentration (IC50) was 1.64 µM and the fold change came out at 1.12.

`Cc1cc(C=C2C(=O)NC(=S)NC2=O)c(C)n1-c1ccc2c(c1)OCO2`: the IC50 was 43.5 µM (inactive) and the fold change worked out at 2.39.

For the compound `CC1CN(c2nc3ccccc3nc2C(C#N)C(=O)NCc2ccc3c(c2)OCO3)CC(C)O1` (centres undefined), the IC50 was 5.37 µM and the fold change amounted to 4.35.

Take `CCCSCC(=O)Nc1ncc2c(n1)-c1ccccc1CC2`: the IC50 is 5.28 µM and the fold change was 2.7.

`COc1ccc(NS(=O)(=O)c2ccc(Cl)s2)cn1`: the IC50 was 4.58 µM and the fold change is 3.24.

As for `Cc1ccccc1N1C(=O)NC(=O)/C(=C\c2ccc3c(c2)CCCN3Cc2ccccc2)C1=O`, the IC50 is 3.61 µM and the fold change stood at 10.3.

Take `COc1ccc(-c2nc(CS(=O)CC(=O)NCc3cccnc3)c(C)o2)cc1` (centres undefined): the IC50 is > 54 µM (inactive) and the fold change came out at 1.01.

With `O=C(N=Nc1c(O)[nH]c2ccccc12)c1cc(-c2ccc(F)cc2)n[nH]1`, the IC50 is > 54 µM (inactive) and the fold change was determined as 0.81.

As to `Cc1ccc(CNC(=O)c2ccc(-n3cccc3)cc2)cc1`, the IC50 was > 54 µM (inactive) and the fold change was 1.15.

For the compound `CCCCCn1c(N)c(-c2nc3ccccc3o2)c2c([N+](=O)[O-])nn(C)c(=O)c21`, the IC50 is 48.1 µM (inactive) and the fold change was determined as 0.443.

Consider `CCO[C@H]1OC(C(=O)N2CCCCCCC2)=C[C@@H](c2ccc(C(F)(F)F)cc2)[C@@H]1CCCO`, for which the IC50 was > 54 µM (inactive) and the fold change turned out to be 0.95.

For the compound `CCOc1ccccc1-c1c2cc(O)c(=O)cc-2oc2cc(O)c(O)cc12`, the IC50 was > 54 µM (inactive) and the fold change turned out to be 232.

As to `Cc1cc(C(F)(F)F)n2nc(-c3sccc3-n3cccc3)cc2n1`, the IC50 is > 54 µM (inactive) and the fold change was found to be 0.957.

Regarding `CCOC(=O)[C@@]1(C#N)C(c2ccc(Cl)c(Cl)c2)[C@H](C(N)=O)N2C=C(C(C)=O)C=C[C@H]21` (some centres undefined), the IC50 is 1.41 µM and the fold change was 9.48.

Regarding `COc1ccc(N=Cc2c(O)n(Cc3ccccc3)c(=S)[nH]c2=O)c(OC)c1`, the IC50 is > 54 µM (inactive) and the fold change was 3.88.

`Cc1ccc(-c2noc(CCC(=O)N3CCCC3)n2)cc1`: the IC50 was > 54 µM (inactive) and the fold change was found to be 1.01.

Regarding `CCOC(=O)/C(C#N)=C\c1ccc(N2CCN(C/C=C/c3ccccc3)CC2)cc1`, the IC50 was 18.7 µM and the fold change is 16.

`O=c1[nH]c(=S)n(-c2ccc(Br)cc2)c(O)c1C=Nc1ccc(N2CCOCC2)cc1`: the concentration for half-maximal inhibition (IC50) is 3.54 µM and the fold change stood at 5.78.

For `COc1ccc(C(CC(=O)N2CCCC2)c2c(OC)cc(OC)c3c(-c4ccccc4)cc(=O)oc23)cc1` (centres undefined), the IC50 is > 54 µM (inactive) and the fold change stood at 0.95.

In the case of `O=C1CCCC2=C1Sc1ccccc1N2`, the concentration for half-maximal inhibition (IC50) was 5.07 µM and the fold change is 1.99.

On to `O=C(C1=NN(c2ccccc2)C2C(=O)N(c3ccccc3Cl)C(=O)C12)c1ccccc1` (centres undefined), for which the IC50 was 6.16 µM and the fold change was 8.43.

Turning to `CN(C)c1ccc(N=Cc2nc(-c3ccccc3)oc2O)cc1`, the IC50 is 6.01 µM and the fold change was found to be 21.1.

Turning to `CCSc1nnc(-c2sc3nnc(-c4ccccc4)c(-c4ccccc4)c3c2N)o1`, the IC50 was 2.2 µM and the fold change stood at 36.9.

Consider `COc1cc(-c2ccc(Nc3ccccc3C(=O)O)c(OC)c2)ccc1Nc1ccccc1C(=O)O`, for which the IC50 was > 54 µM (inactive) and the fold change is 0.9.

Regarding `CCOC(=O)CC(=O)CSc1nc(-c2cccnc2)ccc1C#N`, the IC50 was > 54 µM (inactive) and the fold change came out at 1.63.

In general, IC50 refers to the concentration that gives 50% inhibition.
